Experimental data: ChEMBL document CHEMBL6078643, “Palladium-Mediated Bioorthogonal System for Prodrug Activation of N-Benzylbenzamide-Containing Tubulin Polymerization Inhibitors for the Treatment of Solid Tumors” (J Med Chem, 2024)
Calls of active or inactive are those of the source. The rule behind the calls is not given here.

Key:
K562 [1] = assay: Antiproliferative activity against human K562 cells assessed as reduction in cell viability incubated for 72 hrs by CCK-8 assay; type: functional, cell-based; conditions: K562, 72 h
H22 [2] = assay: Antiproliferative activity against mouse H22 cells assessed as reduction in cell viability incubated for 72 hrs by CCK-8 assay; type: functional, cell-based; conditions: H22, 72 h
HepG2 [3] = assay: Select factor, ratio of test compound IC50 to 4-(((4-((4-methoxyphenyl)(methyl)amino)quinazolin-2-yl)amino)methyl)phenol IC50 for antiproliferative activity against human HepG2 cells assessed as reduction in cell viability incubated for 72 hrs by CCK-8 assay; type: functional
[4] = Prodrug release in PBS buffer assessed as half release time of 4-(((4-((4-methoxyphenyl)(methyl)amino)quinazolin-2-yl)amino)methyl)phenol in presence of palladium resins at 75 uM by HPLC analysis; type: ADME
[5] = Select factor, ratio of test compound IC50 to 4-(((4-((4-methoxyphenyl)(methyl)amino)quinazolin-2-yl)amino)methyl)phenol IC50 for antiproliferative activity against human THLE-2 cells assessed as reduction in cell viability incubated for 72 hrs by CCK-8 assay; type: toxicity, cell-based; conditions: read-out: Ratio IC50
HepG2 [6] = assay: Antiproliferative activity against human HepG2 cells assessed as reduction in cell viability incubated for 72 hrs by CCK-8 assay; type: functional, cell-based; conditions: HepG2, 72 h
[7] = Antiproliferative activity against human THLE-2 cells assessed as reduction in cell viability incubated for 72 hrs by CCK-8 assay; type: toxicity, cell-based
K562 [8] = assay: Select factor, ratio of test compound IC50 to 4-(((4-((4-methoxyphenyl)(methyl)amino)quinazolin-2-yl)amino)methyl)phenol IC50 for antiproliferative activity against human K562 cells assessed as reduction in cell viability incubated for 72 hrs by CCK-8 assay; type: functional
H22 [9] = assay: Select factor, ratio of test compound IC50 to 4-(((4-((4-methoxyphenyl)(methyl)amino)quinazolin-2-yl)amino)methyl)phenol IC50 for antiproliferative activity against mouse H22 cells assessed as reduction in cell viability incubated for 72 hrs by CCK-8 assay; type: functional
K562 [10] = assay: Induction of cell cycle arrest in human K562 cells assessed as accumulation of cells at S phase at 20 nM incubated for 72 hrs by PI staining based flow cytometric analysis ( Rvb = 14.04 %); type: functional
Tubulin (Homo sapiens) [11] = molecular target: T1, Tubulin (Homo sapiens) (UniProt P68371+Q9H4B7+P0DPH7+P68366+Q13509+Q71U36+P04350+Q3ZCM7+P07437+P68363+Q9BQE3+Q6PEY2+Q13885+Q9BVA1+Q9BUF5); assay: Inhibition of tubulin polymerization in human HepG2 cells assessed as decrease in beta tubulin expression at 19 nM incubated for 24 hrs by Western blotting analysis; type: cell-based
Tubulin (Homo sapiens) [12] = molecular target: T1, Tubulin (Homo sapiens); assay: Disruption of microtubule organization in human K562 cells at 20 nM incubated for 72 hrs by DAPI staining based confocal microscopic analysis; type: cell-based
K562 [13] = assay: Induction of apoptosis in human K562 cells assessed as viable cells at 20 nM incubated for 72 hrs by Annexin V-APC staining based flow cytometric analysis (reference value: 94.21%); type: functional; conditions: read-out: Activity
Tubulin (Homo sapiens) [14] = molecular target: T1, Tubulin (Homo sapiens); assay: Inhibition of tubulin polymerization in human HepG2 cells assessed as decrease in alpha tubulin expression at 19 nM incubated for 24 hrs by Western blotting analysis; type: cell-based
K562 [15] = assay: Induction of apoptosis in human K562 cells assessed as early apoptotic cells at 20 nM incubated for 72 hrs by Annexin V-APC staining based flow cytometric analysis (reference value: 2.78%); type: functional
Tubulin (Homo sapiens) [16] = molecular target: T1, Tubulin (Homo sapiens); assay: Inhibition of tubulin polymerization in human HepG2 cells assessed as decrease in polymerized alpha tubulin level at 19 nM incubated for 24 hrs by Western blotting analysis; type: cell-based
K562 [17] = assay: Induction of cell cycle arrest in human K562 cells assessed as accumulation of cells at G1 phase at 20 nM incubated for 72 hrs by PI staining based flow cytometric analysis ( Rvb = 77.46 %); type: functional
HepG2 [18] = assay: Antitumor activity against human HepG2 cells xenografted in Balb/c mouse assessed as tumor growth inhibition at 20 mg/kg, iv administered daily for 14 days relative to control; type: functional; conditions: HepG2, 336 h, time 14 day, read-out: TGI
Tubulin (Homo sapiens) [19] = molecular target: T1, Tubulin (Homo sapiens); assay: Inhibition of tubulin polymerization in human K562 cells assessed as decrease in beta tubulin expression at 16 nM incubated for 24 hrs by Western blotting analysis; type: cell-based
Tubulin (Homo sapiens) [20] = molecular target: T1, Tubulin (Homo sapiens); assay: In vivo inhibition of tubulin polymerization in human HepG2 cells xenografted in Balb/c mouse assessed as decrease in alpha tubulin expression at 20 mg/kg, iv administered daily for 14 days incubated for 24 hrs by Western blot analysis; type: functional, organism-based; conditions: time 14.0 day
HepG2 [21] = assay: Antitumor activity against human HepG2 cells xenografted in Balb/c mouse assessed as cell necrosis at 20 mg/kg, iv administered daily for 14 days by H and E staining based analysis; type: functional, organism-based; conditions: time 14.0 day
HepG2 [22] = assay: Antiproliferative activity against human HepG2 cells at 100 nM incubated for 72 hrs in presence of palladium resins by CCK-8 assay; type: functional, cell-based
Tubulin (Homo sapiens) [23] = molecular target: T1, Tubulin (Homo sapiens); assay: Inhibition of tubulin polymerization in human K562 cells assessed as decrease in alpha tubulin expression at 16 nM incubated for 24 hrs by Western blotting analysis; type: cell-based
HepG2 [24] = assay: Antitumor activity against human HepG2 cells xenografted in Balb/c mouse assessed as cell necrosis at 20 mg/kg, iv administered daily for 14 days by TUNEL staining based analysis; type: functional, organism-based; conditions: time 14.0 day
K562 [25] = assay: Antiproliferative activity against human K562 cells at 100 nM incubated for 72 hrs in presence of palladium resins by CCK-8 assay; type: functional, cell-based
[26] = molecular target: Bcr/Abl fusion protein (Homo sapiens) (UniProt P00519+P11274); assay: Inhibition of Bcr-Abl in human K562 cells at 16 nM incubated for 24 hrs by Western blotting analysis; type: cell-based
K562 [27] = assay: Induction of apoptosis in human K562 cells assessed as necrotic cells at 20 nM incubated for 72 hrs by Annexin V-APC staining based flow cytometric analysis (reference value: 1.65%); type: functional
Tubulin (Homo sapiens) [28] = molecular target: T1, Tubulin (Homo sapiens); assay: In vivo inhibition of tubulin polymerization in human HepG2 cells xenografted in Balb/c mouse assessed as decrease in beta tubulin expression at 20 mg/kg, iv administered daily for 14 days incubated for 24 hrs by Western blot analysis; type: functional, organism-based; conditions: time 14.0 day
K562 [29] = assay: Induction of cell cycle arrest in human K562 cells assessed as accumulation of cells at G2 phase at 20 nM incubated for 72 hrs by PI staining based flow cytometric analysis ( Rvb = 8.5 %); type: functional
K562 [30] = assay: Induction of apoptosis in human K562 cells assessed as late apoptotic cells at 20 nM incubated for 72 hrs by Annexin V-APC staining based flow cytometric analysis (reference value: 1.36%); type: functional
Tubulin (Homo sapiens) [31] = molecular target: T1, Tubulin (Homo sapiens); assay: Inhibition of tubulin polymerization in human K562 cells assessed as decrease in polymerized alpha tubulin level at 16 nM incubated for 24 hrs by Western blotting analysis; type: cell-based
HepG2 [32] = assay: Select factor, ratio of test compound IC50 to 5-fluoro-N-(3-hydroxy-4-methoxybenzyl)-2-morpholinobenzamide IC50 for antiproliferative activity against human HepG2 cells assessed as reduction in cell viability incubated for 72 hrs by CCK-8 assay; type: functional
[33] = Prodrug release in PBS buffer assessed as half release time of 5-fluoro-N-(3-hydroxy-4-methoxybenzyl)-2-morpholinobenzamide in presence of palladium resins at 75 uM by HPLC analysis; type: ADME
K562 [34] = assay: Select factor, ratio of test compound IC50 to 5-fluoro-N-(3-hydroxy-4-methoxybenzyl)-2-morpholinobenzamide IC50 for antiproliferative activity against human K562 cells assessed as reduction in cell viability incubated for 72 hrs by CCK-8 assay; type: functional
H22 [35] = assay: Select factor, ratio of test compound IC50 to 5-fluoro-N-(3-hydroxy-4-methoxybenzyl)-2-morpholinobenzamide IC50 for antiproliferative activity against mouse H22 cells assessed as reduction in cell viability incubated for 72 hrs by CCK-8 assay; type: functional
[36] = Select factor, ratio of test compound IC50 to 5-fluoro-N-(3-hydroxy-4-methoxybenzyl)-2-morpholinobenzamide IC50 for antiproliferative activity against human THLE-2 cells assessed as reduction in cell viability incubated for 72 hrs by CCK-8 assay; type: toxicity, cell-based; conditions: read-out: Ratio IC50

Sequence of Bcr/Abl fusion protein (Homo sapiens) (P00519 whole entry, looked up, the tested form may be a part): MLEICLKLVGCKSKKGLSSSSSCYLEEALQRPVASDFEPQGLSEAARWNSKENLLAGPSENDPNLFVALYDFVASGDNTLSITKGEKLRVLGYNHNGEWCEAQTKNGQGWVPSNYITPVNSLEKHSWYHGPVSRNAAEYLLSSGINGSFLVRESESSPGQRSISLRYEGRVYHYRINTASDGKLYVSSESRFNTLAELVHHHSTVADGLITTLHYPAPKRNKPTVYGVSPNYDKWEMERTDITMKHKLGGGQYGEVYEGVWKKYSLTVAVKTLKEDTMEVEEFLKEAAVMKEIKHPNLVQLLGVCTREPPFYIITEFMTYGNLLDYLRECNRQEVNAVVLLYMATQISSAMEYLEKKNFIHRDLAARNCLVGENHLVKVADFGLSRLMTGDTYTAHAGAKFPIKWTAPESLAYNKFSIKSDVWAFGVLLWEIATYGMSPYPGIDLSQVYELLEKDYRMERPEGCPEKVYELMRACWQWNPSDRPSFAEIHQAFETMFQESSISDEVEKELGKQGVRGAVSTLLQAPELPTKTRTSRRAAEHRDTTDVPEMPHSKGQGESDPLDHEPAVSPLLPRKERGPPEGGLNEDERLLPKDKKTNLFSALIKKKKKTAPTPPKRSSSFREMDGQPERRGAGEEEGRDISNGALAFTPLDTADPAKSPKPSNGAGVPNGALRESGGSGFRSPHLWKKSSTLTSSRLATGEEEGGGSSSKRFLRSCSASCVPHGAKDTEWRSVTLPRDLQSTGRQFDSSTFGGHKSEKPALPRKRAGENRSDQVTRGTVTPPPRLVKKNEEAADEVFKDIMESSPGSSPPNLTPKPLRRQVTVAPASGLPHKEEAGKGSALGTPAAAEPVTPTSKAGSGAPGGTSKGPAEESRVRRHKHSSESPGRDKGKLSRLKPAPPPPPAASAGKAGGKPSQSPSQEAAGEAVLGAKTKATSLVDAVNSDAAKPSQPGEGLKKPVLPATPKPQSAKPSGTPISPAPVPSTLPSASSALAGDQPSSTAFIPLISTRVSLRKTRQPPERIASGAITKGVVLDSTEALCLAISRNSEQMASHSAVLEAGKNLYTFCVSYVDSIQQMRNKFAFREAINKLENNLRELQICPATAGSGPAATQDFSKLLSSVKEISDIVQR
Sequence of Bcr/Abl fusion protein (Homo sapiens) (P11274 whole entry, looked up, the tested form may be a part): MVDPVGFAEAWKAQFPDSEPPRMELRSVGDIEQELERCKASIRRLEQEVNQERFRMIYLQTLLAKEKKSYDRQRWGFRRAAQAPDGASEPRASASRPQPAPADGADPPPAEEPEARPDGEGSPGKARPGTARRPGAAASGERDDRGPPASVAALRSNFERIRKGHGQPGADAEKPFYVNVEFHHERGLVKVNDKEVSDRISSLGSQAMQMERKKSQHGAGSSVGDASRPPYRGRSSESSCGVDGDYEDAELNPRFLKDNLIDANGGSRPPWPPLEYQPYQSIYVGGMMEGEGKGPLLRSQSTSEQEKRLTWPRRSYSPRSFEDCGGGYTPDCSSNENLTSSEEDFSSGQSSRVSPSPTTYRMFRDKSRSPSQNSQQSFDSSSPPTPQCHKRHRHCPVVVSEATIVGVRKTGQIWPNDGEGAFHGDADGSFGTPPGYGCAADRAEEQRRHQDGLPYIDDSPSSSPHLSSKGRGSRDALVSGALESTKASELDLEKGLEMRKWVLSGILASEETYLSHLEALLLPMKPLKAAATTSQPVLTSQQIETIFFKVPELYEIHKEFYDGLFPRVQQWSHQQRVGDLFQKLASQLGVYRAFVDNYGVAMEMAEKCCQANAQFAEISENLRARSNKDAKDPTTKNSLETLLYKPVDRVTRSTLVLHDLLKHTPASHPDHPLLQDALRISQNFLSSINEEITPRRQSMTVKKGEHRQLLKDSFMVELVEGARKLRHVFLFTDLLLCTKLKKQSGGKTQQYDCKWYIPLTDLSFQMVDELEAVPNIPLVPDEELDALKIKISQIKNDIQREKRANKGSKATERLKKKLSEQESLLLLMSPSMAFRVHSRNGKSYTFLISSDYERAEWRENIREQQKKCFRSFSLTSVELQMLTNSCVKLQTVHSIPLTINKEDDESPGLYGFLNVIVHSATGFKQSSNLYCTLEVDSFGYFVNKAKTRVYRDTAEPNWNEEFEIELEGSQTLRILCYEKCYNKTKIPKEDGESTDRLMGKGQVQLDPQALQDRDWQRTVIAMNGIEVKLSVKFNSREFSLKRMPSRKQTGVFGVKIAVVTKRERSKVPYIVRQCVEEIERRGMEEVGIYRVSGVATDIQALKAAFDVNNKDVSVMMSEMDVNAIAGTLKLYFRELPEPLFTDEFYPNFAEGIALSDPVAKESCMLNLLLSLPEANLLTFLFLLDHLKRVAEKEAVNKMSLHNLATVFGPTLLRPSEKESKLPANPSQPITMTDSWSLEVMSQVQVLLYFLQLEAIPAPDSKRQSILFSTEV

For C#CC(C)(C)Oc1ccc(CNc2nc(N(C)c3ccc(OC)cc3)c3ccccc3n2)cc1, the IC50 (K562 [1]) was 508 nM, the IC50 (H22 [2]) was 473 nM and the “Ratio IC50” value (HepG2 [3]) was 34.1. For the same molecule, the t1/2 [4] was 5.8 h, the selectivity ratio at 72 h [5] was 11.4 and the IC50 (HepG2 [6]) was 491 nM. For the same molecule, the IC50 at 72 h [7] was 516 nM, the “Ratio IC50” value (K562 [8]) was 26 and the “Ratio IC50” value (H22 [9]) was 24.5.
For C=CCOc1ccc(CNc2nc(N(C)c3ccc(OC)cc3)c3ccccc3n2)cc1, the IC50 (K562 [1]) was 502 nM, the IC50 (H22 [2]) was 285 nM and the “Ratio IC50” value (HepG2 [3]) was 27.9. It also gave a t1/2 [4] greater than 24 h, a selectivity ratio at 72 h [5] of 7.8 and an IC50 (HepG2 [6]) of 402 nM. For the same molecule, the IC50 at 72 h [7] was 353 nM, the “Ratio IC50” value (K562 [8]) was 25.7 and the “Ratio IC50” value (H22 [9]) was 14.8.
Work on COc1ccc(CNC(=O)c2cc(F)ccc2N2CCOCC2)cc1O yielded an IC50 (K562 [1]) of 16 nM, an Activity (K562 [10]) of 32.73% and an IC50 (H22 [2]) of 20.3 nM. The inhibition (Tubulin (Homo sapiens) [11]) was “Active”, the Activity (Tubulin (Homo sapiens) [12]) was “Active” and the viability at 0.02 µM (K562 [13]) was 15.2%. The inhibition (Tubulin (Homo sapiens) [14]) was “Active”, the Activity (K562 [15]) was 20.68% and the inhibition (Tubulin (Homo sapiens) [16]) was “Active”. For the same molecule, the Activity (K562 [17]) was 45.95%, the inhibition in vivo at 20 mg/kg (HepG2 [18]) was 49.6% and the inhibition (Tubulin (Homo sapiens) [19]) was “Active”. For the same molecule, the IC50 (HepG2 [6]) was 19.2 nM, the Activity (Tubulin (Homo sapiens) [20]) was “Active” and the IC50 at 72 h [7] was 21.4 nM. For the same molecule, the Activity (HepG2 [21]) was “Active”, the Activity (HepG2 [22]) was “Active” and the inhibition (Tubulin (Homo sapiens) [23]) was “Active”. For the same molecule, the Activity (HepG2 [24]) was “Active”, the Activity (K562 [25]) was “Active” and the inhibition [26] was “Active”. For the same molecule, the Activity (K562 [27]) was 4.31%, the Activity (Tubulin (Homo sapiens) [28]) was “Active” and the Activity (K562 [29]) was 21.32%. For the same molecule, the Activity (K562 [30]) was 59.77% and the inhibition (Tubulin (Homo sapiens) [31]) was “Active”.
With C#CC(C)(C)Oc1cc(CNC(=O)c2cc(F)ccc2N2CCOCC2)ccc1OC the “Ratio IC50” value (HepG2 [32]) was 57.8, the IC50 (K562 [1]) was 460 nM and the IC50 (H22 [2]) was 444 nM. For the same molecule, the t1/2 [33] was 14.5 h, the “Ratio IC50” value (K562 [34]) was 28.7 and the IC50 (HepG2 [6]) was 1110 nM. The IC50 at 72 h [7] was 1330 nM, the “Ratio IC50” value (H22 [35]) was 21.9 and the selectivity ratio at 72 h [36] was 62.2.
With C=CCOc1cc(CNC(=O)c2cc(F)ccc2N2CCOCC2)ccc1OC the “Ratio IC50” value (HepG2 [32]) was 28.2, the IC50 (K562 [1]) was 3980 nM and the IC50 (H22 [2]) was 282 nM. The t1/2 [33] was greater than 24 h, the “Ratio IC50” value (K562 [34]) was 248.8 and the IC50 (HepG2 [6]) was 541 nM. For the same molecule, the IC50 at 72 h [7] was 5470 nM, the “Ratio IC50” value (H22 [35]) was 13.9 and the selectivity ratio at 72 h [36] was 25.6.
Work on COc1ccc(N(C)c2nc(NCc3ccc(O)cc3)nc3ccccc23)cc1 yielded an IC50 (K562 [1]) of 19.5 nM, an IC50 (H22 [2]) of 19.3 nM and an IC50 (HepG2 [6]) of 14.4 nM. For the same molecule, the IC50 at 72 h [7] was 45.4 nM.
In the case of C#CCOc1ccc(CNc2nc(N(C)c3ccc(OC)cc3)c3ccccc3n2)cc1, the IC50 (K562 [1]) is reported as 470 nM, the IC50 (H22 [2]) is reported as 229 nM and the “Ratio IC50” value (HepG2 [3]) is reported as 63.5. It also gave a t1/2 [4] of 4.2 h, a selectivity ratio at 72 h [5] of 15.5 and an IC50 (HepG2 [6]) of 914 nM. For the same molecule, the IC50 at 72 h [7] was 703 nM, the “Ratio IC50” value (K562 [8]) was 24.1 and the “Ratio IC50” value (H22 [9]) was 11.8.
